Measurements taken from patent US7528252B2, “Derivatives of triazoly-imidazopyridine useful as ligands of the adenosine A2a receptor and their use as medicaments” (Sigma-Tau Industrie Farmaceutiche Riunite S.p.A., priority 2002, dated 2009).
Read-outs that look alike come from different tables or passages of the source.

Legend:
human A2b receptor = molecular target: T1, human A2b receptor (Homo sapiens, UniProt P29275); test: Affinity towards the adenosine A2b receptor ([3H]-DPCPX binding, HEK 293 membranes); settings: read-out: A2b Ki (nM) ± sd
T1 construct: expressed in transfected cells; host or cells: HEK 293
T1 sequence (P29275 1-332): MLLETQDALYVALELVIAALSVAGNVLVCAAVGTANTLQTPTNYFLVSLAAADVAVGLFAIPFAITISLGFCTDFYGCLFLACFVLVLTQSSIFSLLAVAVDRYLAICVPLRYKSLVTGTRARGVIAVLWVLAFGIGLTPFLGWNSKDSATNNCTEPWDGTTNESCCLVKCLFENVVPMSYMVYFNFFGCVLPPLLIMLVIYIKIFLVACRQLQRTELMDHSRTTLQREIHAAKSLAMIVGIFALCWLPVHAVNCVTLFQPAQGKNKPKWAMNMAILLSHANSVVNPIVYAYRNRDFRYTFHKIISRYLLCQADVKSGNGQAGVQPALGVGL
Description: The interactive capacity of each product towards the adenosine A2b receptor was evaluated using membranes from HEK 293 cells stably expressing the human A2b receptor subtype exclusively.
Non-specific binding was measured in the presence of NECA (50 μM).
In binding studies for each compound, eight different concentrations (from 10^−5 M to 10^−12 M) were evaluated in order to obtain competition curves. By means of non-linear regression analysis of the competition curves, the IC50 values, which express the binding affinity of each product, were determined. Using the Cheng Prusoff equation (Ki=IC50/1+(L/Kd)) Ki values were calculated through which the affinity of each product studied, for the receptor investigated, is expressed.

NMDA = test: Receptor binding study, NMDA; settings: reference compound
CD1 male mice [1] = test: Effects on spontaneous motor activity in mice; format: in vivo; settings: for Horizontal activity / Total distance / Vertical activity: mean ± s.e.
Description: For this study, type CD1 male mice (n=8) were used. The effects of the products under study and of the reference compounds were evaluated using an apparatus consisting of a Plexiglas cage (40 cm×40 cm) surrounded by a series of photocells which monitor the movements of the animals placed inside, connected a computerised system, through which, the signals are collected and later elaborated.
Tests were carried out, after endoperitoneal administration of the products. 15 minutes after treatment, the treated animals, alternating with the controls, were placed inside the cage so as to record their spontaneous movements over a total period of 45 minutes broken down into two observation intervals (15′-45′ and 45′-60′, with respect to the time after treatment).
To examine the possible effects of the compounds studied on motor activity, the following parameters were considered: horizontal activity, vertical activity: total distance.
Except for CGS 21680 (reference compound, described in EP 0 277 917, Ciba-Geigy) which was dissolved in 0.9% NaCl, the products studied were solubilised in DMSO and then diluted in Cremofor EL and 0.9% NaCl (final concentrations: DMSO 15%, Cremofor EL 15%, NaCl 0.9%.

M5 = molecular target: T2, M5 (Homo sapiens, UniProt P08912); test: Receptor binding study, M5; settings: reference compound
T2 sequence (P08912 1-532): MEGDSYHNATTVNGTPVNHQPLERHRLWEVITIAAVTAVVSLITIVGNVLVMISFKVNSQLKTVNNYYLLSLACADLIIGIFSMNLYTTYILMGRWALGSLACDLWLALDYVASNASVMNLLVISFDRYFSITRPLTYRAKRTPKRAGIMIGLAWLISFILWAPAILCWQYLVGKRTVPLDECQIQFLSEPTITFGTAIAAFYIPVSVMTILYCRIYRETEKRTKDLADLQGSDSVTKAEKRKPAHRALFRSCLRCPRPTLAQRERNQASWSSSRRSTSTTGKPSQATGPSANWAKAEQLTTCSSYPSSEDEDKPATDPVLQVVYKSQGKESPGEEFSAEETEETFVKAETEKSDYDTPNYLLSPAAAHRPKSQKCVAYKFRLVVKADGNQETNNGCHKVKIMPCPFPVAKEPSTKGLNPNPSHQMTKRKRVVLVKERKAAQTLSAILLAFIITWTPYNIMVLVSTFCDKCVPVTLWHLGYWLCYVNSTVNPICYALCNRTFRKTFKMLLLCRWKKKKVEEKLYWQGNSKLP

Cholinetransporter = molecular target: T3, Cholinetransporter (Homo sapiens, UniProt Q9GZV3); test: Receptor binding study, Choline transporter; settings: reference compound
T3 sequence (Q9GZV3 1-580): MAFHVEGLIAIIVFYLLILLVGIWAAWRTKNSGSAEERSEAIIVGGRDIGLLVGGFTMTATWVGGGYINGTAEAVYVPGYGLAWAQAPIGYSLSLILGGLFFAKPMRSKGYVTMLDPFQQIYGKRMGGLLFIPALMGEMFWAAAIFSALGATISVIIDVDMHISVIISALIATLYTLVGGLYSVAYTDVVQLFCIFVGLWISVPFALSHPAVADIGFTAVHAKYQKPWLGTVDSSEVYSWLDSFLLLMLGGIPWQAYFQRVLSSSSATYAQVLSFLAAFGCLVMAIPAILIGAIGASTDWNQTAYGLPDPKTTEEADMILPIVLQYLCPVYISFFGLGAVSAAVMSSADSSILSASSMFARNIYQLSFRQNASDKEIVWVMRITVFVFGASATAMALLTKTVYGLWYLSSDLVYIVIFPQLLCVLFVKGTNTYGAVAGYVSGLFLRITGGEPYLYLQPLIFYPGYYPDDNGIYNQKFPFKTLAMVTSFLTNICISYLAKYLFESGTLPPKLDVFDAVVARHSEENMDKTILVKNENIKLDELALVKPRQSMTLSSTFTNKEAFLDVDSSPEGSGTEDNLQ

PCP = test: Receptor binding study, PCP; settings: reference compound
ADOtransporter = test: Receptor binding study, ADO transporter; settings: reference compound
human A2a receptor [2] = molecular target: T4, human A2a receptor (Homo sapiens, UniProt P29274); settings: for KiA1/KiA2a: ratio of receptor affinity (selectivity); for Ki: read-out: A2a Ki (nM) ± sd, human A2a, HEK 293 membranes, [3H]-CGS21680
[3] = molecular target: T5, human A1 subtype adenosine receptor (Homo sapiens, UniProt P30542); test: Affinity towards the adenosine A1 receptor ([3H]-DPCPX binding, CHO-K1 membranes); settings: read-out: A1 Ki (nM) ± sd
T5 construct: expressed in transfected cells; host or cells: CHO-K1
T5 sequence (P30542 1-326): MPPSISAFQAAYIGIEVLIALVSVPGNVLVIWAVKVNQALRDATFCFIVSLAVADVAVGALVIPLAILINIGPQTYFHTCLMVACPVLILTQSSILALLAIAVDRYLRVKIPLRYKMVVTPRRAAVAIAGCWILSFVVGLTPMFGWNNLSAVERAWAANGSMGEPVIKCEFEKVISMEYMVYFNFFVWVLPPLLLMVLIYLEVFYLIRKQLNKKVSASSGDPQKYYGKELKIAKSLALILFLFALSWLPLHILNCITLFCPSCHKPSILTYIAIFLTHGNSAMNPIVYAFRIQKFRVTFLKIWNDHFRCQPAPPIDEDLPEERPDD

CD1 male mice [4] = test: Capacity of the products to induce catalepsy in mice; format: in vivo; settings: endoperitoneal, 30 minutes prior to the test
Description: 10 CD1 male mice were used per group. For this test, a steel bar, 10 cm long, was placed at a height of 4.5 cm above the support surface. Onto this, were placed the front legs of the animals. The presence of catalepsy was determined by measuring the time (in seconds) the animal remained in the posture placed. Later, this parameter was placed relatively, on a scale of rising values (0 to 5) through which, the degree of catalepsy determined in both control animals and in these subjected to treatment with the substances under test could be proportionately expressed.
The reference products and these in this study were administered endoperitoneally, in a volume of 10 ml/kg, 30 minutes prior to the test.
Except for CGS 21680 (reference compound) which was dissolved in 0.9% NaCl, the products in the study and the control antagonist ZM 241385 were solubilised in DMSO and then diluted in Cremofor EL and 0.9% NaCl (final concentrations: DMSO 15%, Cremofor EL 15%, NaCl 0.9%).

human A2a receptor [5] = molecular target: T4, human A2a receptor; test: biochemical
P2Y = test: Receptor binding study, P2Y; settings: reference compound
mice = test: Forced swim test in mice; format: in vivo; settings: 60 minutes before the test; 4 minutes of testing period
Description: Mice were dropped individually into glass cylinders (height: 25 cm, internal diameter 10 cm) containing 10 cm water, maintained at 23° C. The immobility time (sec) was measured during 4 minutes of test. A mouse was judged to be immobile when it remained floating in the water, making only the necessary movements to keep its head above water. Test compound ST 1535 was administered orally to mice, 60 minutes before the test.

GABAa = test: Receptor binding study, GABAa; settings: reference compound
P2X = test: Receptor binding study, P2X; settings: reference compound
[6] = 0.5 mg/kg endoperitoneal, interval 15′-45′ from treatment
[7] = 0.5 mg/kg endoperitoneal, interval 45′-60′ from treatment
[8] = 2.5 mg/kg endoperitoneal, interval 15′-45′ from treatment
[9] = 2.5 mg/kg endoperitoneal, interval 45′-60′ from treatment
[10] = 5 mg/kg endoperitoneal, interval 15′-45′ from treatment
[11] = 5 mg/kg endoperitoneal, interval 45′-60′ from treatment
[12] = 10 mg/kg endoperitoneal, interval 15′-45′ from treatment
[13] = 10 mg/kg endoperitoneal, interval 45′-60′ from treatment

T4 sequence (P29274 whole entry): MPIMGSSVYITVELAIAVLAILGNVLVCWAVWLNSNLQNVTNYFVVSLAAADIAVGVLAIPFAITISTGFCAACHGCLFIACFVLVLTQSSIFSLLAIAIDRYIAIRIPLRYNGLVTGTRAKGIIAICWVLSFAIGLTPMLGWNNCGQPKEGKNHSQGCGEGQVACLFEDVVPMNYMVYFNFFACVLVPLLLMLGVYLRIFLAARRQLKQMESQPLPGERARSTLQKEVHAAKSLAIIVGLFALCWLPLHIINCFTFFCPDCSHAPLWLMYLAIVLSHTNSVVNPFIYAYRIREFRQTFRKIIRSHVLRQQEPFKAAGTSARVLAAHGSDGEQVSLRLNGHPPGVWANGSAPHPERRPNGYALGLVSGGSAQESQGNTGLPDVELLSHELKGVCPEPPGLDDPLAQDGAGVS

`O=c1nc2[nH]c3ccccc3nc-2c(=O)[nH]1` [Alloxazine, reference compound] showed a Ki (human A2b receptor) of 3.8 ± 2.1 nM.
Molecule `O=C(O)[C@@H]1C[C@H](CP(=O)(O)O)CCN1` [CGS 19755, reference compound] has an IC50 (NMDA) of 967 nM.
Molecule `CCNC(=O)[C@H]1O[C@@H](n2cnc3c(N)nc(NCCc4ccc(CCC(=O)O)cc4)nc32)[C@H](O)[C@@H]1O` [CGS 21680, reference compound] has a Horizontal activity (CD1 male mice [1]; [6]) of 1608 ± 328, a Total distance (CD1 male mice [1]; [6]) of 504 ± 106 and a Vertical activity (CD1 male mice [1]; [6]) of 27 ± 11. The Horizontal activity (CD1 male mice [1]; [7]) was 471 ± 254, the Total distance (CD1 male mice [1]; [7]) was 121 ± 73 and the Vertical activity (CD1 male mice [1]; [7]) was 10 ± 1.
In the case of `C[N+]1(C)CCC(OC(=O)C(c2ccccc2)c2ccccc2)CC1` [Compound 4-DAMP, reference compound], the IC50 (M5) is reported as 2 nM.
In the case of `C[N+]1(C)CCOC(O)(c2ccc(-c3ccc(C4(O)C[N+](C)(C)CCO4)cc3)cc2)C1` (stereo not drawn) [Hemicholinium-3, reference compound], the IC50 (Cholinetransporter) is reported as 12 nM.
`C[C@]12N[C@H](Cc3ccccc31)c1ccccc12` [MK-801, reference compound] was tested, and the IC50 (PCP) was 2 nM.
Molecule `O=[N+]([O-])c1ccc(CSc2ncnc3c2ncn3[C@@H]2O[C@H](CO)[C@@H](O)[C@H]2O)cc1` [NBTI, reference compound] has an IC50 (ADOtransporter) of 0.3 nM.
In the case of `Cn1c(-n2nccn2)nc2c(N)ncnc21` [ST 1490, 6-amino-9-methyl-8-(triazol-2-yl)-9(H)-purine], the KiA1/KiA2a (human A2a receptor [2]) is reported as 0.009, the Ki (human A2a receptor [2]) is reported as 46 nM and the Ki [3] is reported as 0.43 nM.
`Cc1nc(N)c2nc(-n3nccn3)n(C)c2n1` [ST 1491, 6-amino-2,9-dimethyl-8-(triazol-2-yl)-9(H)-purine] showed a KiA1/KiA2a (human A2a receptor [2]) of 0.15, a Ki (human A2a receptor [2]) of 70 ± 15 nM and a Ki [3] of 10 ± 1.4 nM.
`Cn1c(-n2nccn2)nc2c(N)nc(CCc3ccccc3)nc21` [ST 1537, 9-methyl-2-(2-phenylethyl)-8-(2H-1,2,3-triazol-2-yl)-9H-purine-6-ylamine] was tested, and the Ki (human A2b receptor) was 2330 ± 588 nM, the “appearance of catalepsy in mice (FIG. 1)” value (CD1 male mice [4]) was “none of them brought about the appearance of catalepsy in mice” and the Horizontal activity (CD1 male mice [1]; [8]) was 7494 ± 565. The Total distance (CD1 male mice [1]; [8]) was 1676 ± 204, the Vertical activity (CD1 male mice [1]; [8]) was 590 ± 78 and the Horizontal activity (CD1 male mice [1]; [9]) was 3133 ± 250. The Total distance (CD1 male mice [1]; [9]) was 677 ± 105, the Vertical activity (CD1 male mice [1]; [9]) was 210 ± 17 and the Horizontal activity (CD1 male mice [1]; [10]) was 7203 ± 264. The Total distance (CD1 male mice [1]; [10]) was 1503 ± 116, the Vertical activity (CD1 male mice [1]; [10]) was 498 ± 77 and the Horizontal activity (CD1 male mice [1]; [11]) was 2844 ± 299. The Total distance (CD1 male mice [1]; [11]) was 532 ± 95, the Vertical activity (CD1 male mice [1]; [11]) was 363 ± 91 and the Horizontal activity (CD1 male mice [1]; [12]) was 8242 ± 847. For the same molecule, the Total distance (CD1 male mice [1]; [12]) was 2707 ± 950, the Vertical activity (CD1 male mice [1]; [12]) was 528 ± 126 and the Horizontal activity (CD1 male mice [1]; [13]) was 3874 ± 295. For the same molecule, the Total distance (CD1 male mice [1]; [13]) was 843 ± 149, the Vertical activity (CD1 male mice [1]; [13]) was 276 ± 57 and the “effect on motor activity in mice (in words)” value (CD1 male mice [1]; independently of the dosage administered (2.5-10 mg/kg)) was “induces a clear increase in motor activity”. It also gave a Ki [3] of 80 ± 13 nM.
`Cn1c(-n2nccn2)nc2c(N)nccc21` [ST 1680, 4-amino-1-methyl-2-(triazol-2-yl)-1(H)-imidazo[4,5-c]pyridino triflate] showed a KiA1/KiA2a (human A2a receptor [2]) of 16, a Ki (human A2a receptor [5]) of 97 ± 23 nM and a Ki (human A2b receptor) of 926 ± 55 nM. It also gave a Ki [3] of 1560 ± 252 nM.
For `Nc1ncnc2c1ncn2[C@H]1C[C@H](O)[C@@H](COP(O)(=S)OP(=O)(O)OP(=O)(O)O)O1` (stereo partly drawn) [dATPα S, reference compound], the IC50 (P2Y) was 22 nM.
For `CN(C)CCCN1c2ccccc2CCc2ccccc21` [imipramine, reference compound], the “time of immobility, forced swim test (FIG. 5)” value (mice) was “in a manner similar to that observed for the antidepressive drug Imipramine”.
With `NCc1cc(=O)[nH]o1` [muscimol, reference compound] the IC50 (GABAa) was 16 nM.
Molecule `Nc1ncnc2c1ncn2[C@@H]1O[C@H](COP(=O)(O)CP(=O)(O)OP(=O)(O)O)[C@@H](O)[C@H]1O` [α,β-MeATP, reference compound] has an IC50 (P2X) of 14 nM.
